{"source": "patent US4686221A", "about": "“Quinolinecarboxylic acid compounds and antimicrobial agent containing the same” (Kanebo, Ltd., priority 1985, dated 1987)", "key": {"[1]": {"system": "Staphylococcus aureus IID 803", "test": "Antibacterial activity in vivo (effect against systemic infection: ED50), S. aureus infected mice", "design": "species or system ddY male mice infected with Staphylococcus aureus", "details": "read-out: Antibacterial activity ED50 (50% effective dose)", "description": "(§1) Staphylococcus aureus IID 803\n(§2) (2) Measurement of antibacterial activity in vivo (effect against systemic infection: ED50):\n(§3) The test microorganism was cultured by stationary culture in an agar medium (Trypto-Soya Agar \"Nissui\", manufactured by Nissui Seiyaku K.K., Japan) at 37° C. for 16 to 18 hours. The culture was diluted with PBS (Dulbecco's phosphate buffered saline) and then was mixed with an equiamount of 10% (W/V) mucin (BACTO MUCIN BACTERIOLOGICAL, manufactured by Difco Co.). The mixture thus prepared was intraperitoneally inoculated to fasted ddY male mice (4 weeks age, weighing 18-20 g, one group: 5 mice) in a dose of 0.5 ml. The inoculum size was 1.3×10^7 CFU/mouse in case of S. aureus IID 803, and 9.7×10^3 CFU/mouse in case of E. coli KC-14.\n(§4) The mice were daily observed for one week, and from the survival number of mice after one week, the 50% effective dose (ED50) was calculated by the Weil method."}, "Escherichia coli KC-14 [2]": {"system": "Escherichia coli KC-14", "test": "Antibacterial activity in vivo (effect against systemic infection: ED50), E. coli infected mice", "design": "species or system ddY male mice infected with Escherichia coli", "details": "read-out: Antibacterial activity ED50 (50% effective dose)", "description": "as §2, §3, §4"}, "in vivo": {"test": "in vivo", "details": "mouse, po", "method": "EXPERIMENT 2: ACUTE TOXICITY (LD50)\nThe number of dead mice during 2 weeks after administration was counted, and the acute toxicity (LD50) was calculated by Weil method."}, "Escherichia coli KC-14 [3]": {"system": "Escherichia coli KC-14", "test": "Antibacterial activity in vitro (minimum inhibitory concentration: MIC)", "type": "cell-based", "description": "(§5) (1) Measurement of antibacterial activity in vitro (minimum inhibitory concentration: MIC):\n(§6) The test compounds were each dissolved in 0.1N aqueous potassium hydroxide or sterilized distilled water and diluted with sterilized distilled water to give a standard solution (concentration: 1,000 μg/ml). The test was carried out by a method as appointed by Japan Society of Chemotherapy [cf. Chemotherapy, 29, 76-79 (1981) (TOKYO)]."}, "[4]": {"system": "Staphylococcus aureus IID 803", "test": "Antibacterial activity in vitro (minimum inhibitory concentration: MIC)", "type": "cell-based", "description": "as §1, §5, §6"}, "[5]": {"details": "IID803, 168 h, S. aureus IID 803 systemic infection, mice, oral 1 h after infection, survival after one week"}, "[6]": {"details": "KC14, 168 h, E. coli KC-14 systemic infection, mice, oral 1 h after infection, survival after one week"}, "[7]": {"details": "KC14, E. coli KC-14, in vitro, read-out: Antibacterial activity MIC (minimum inhibitory concentration)"}, "[8]": {"details": "IID803, S. aureus IID 803, in vitro, read-out: Antibacterial activity MIC (minimum inhibitory concentration)"}}, "note": "Structures can show the parent of a compound that is named as a salt. Where two headings read alike, the source gives them in different places."}
{"compound": "Cl.O.O=C(O)c1cn(CCF)c2c(F)c(N3CCN(O)CC3)c(F)cc2c1=O", "note": "[compound 4, 6,8-Difluoro-1-(2-fluoroethyl)-1,4-dihydro-7-(4-hydroxypiperazin-1-yl)-4-oxoquinoline-3-carboxylic acid hydrochloride monohydrate]", "values": [{"measurement": "ED50", "setting": "[1]; [5]", "value": 107, "unit": "mg/kg"}, {"measurement": "ED50", "setting": "Escherichia coli KC-14 [2]; [6]", "value": 1.46, "unit": "mg/kg"}, {"measurement": "LD50 at 336 h", "setting": "in vivo", "value": "> 4000", "unit": "mg/kg"}, {"measurement": "MIC", "setting": "Escherichia coli KC-14 [3]; [7]", "value": 0.39, "unit": "µg/mL"}, {"measurement": "MIC", "setting": "[4]; [8]", "value": 1.56, "unit": "µg/mL"}]}
{"compound": "Cl.O=C(O)c1cn(C2CC2)c2c(F)c(N3CCNCC3)c(F)cc2c1=O", "note": "[E, 1-Cyclopropyl-6,8-difluoro-1,4-dihydro-7-(piperazin-1-yl)-4-oxoquinoline-3-carboxylic acid hydrochloride, reference compound]", "values": [{"measurement": "ED50", "setting": "[1]; [5]", "value": 5.07, "unit": "mg/kg"}, {"measurement": "ED50", "setting": "Escherichia coli KC-14 [2]; [6]", "value": 0.28, "unit": "mg/kg"}, {"measurement": "LD50 at 336 h", "setting": "in vivo", "value": 1410, "unit": "mg/kg"}, {"measurement": "MIC", "setting": "Escherichia coli KC-14 [3]; [7]", "value": 0.0125, "unit": "µg/mL"}, {"measurement": "MIC", "setting": "[4]; [8]", "value": 0.2, "unit": "µg/mL"}]}
{"compound": "CCn1cc(C(=O)O)c(=O)c2cc(F)c(N3CCN(O)CC3)c(F)c21.Cl", "note": "[compound 3, 1-Ethyl-6,8-difluoro-1,4-dihydro-7-(4-hydroxypiperazin-1-yl)-4-oxoquinoline-3-carboxylic acid hydrochloride]", "values": [{"measurement": "ED50", "setting": "[1]; [5]", "value": 26.8, "unit": "mg/kg"}, {"measurement": "ED50", "setting": "Escherichia coli KC-14 [2]; [6]", "value": 0.84, "unit": "mg/kg"}, {"measurement": "LD50 at 336 h", "setting": "in vivo", "value": "> 4000", "unit": "mg/kg"}, {"measurement": "MIC", "setting": "Escherichia coli KC-14 [3]; [7]", "value": 0.2, "unit": "µg/mL"}, {"measurement": "MIC", "setting": "[4]; [8]", "value": 0.78, "unit": "µg/mL"}]}
{"compound": "Cl.O=C(O)c1cn(C2CC2)c2c(F)c(N3CCN(O)CC3)c(F)cc2c1=O", "note": "[compound 5, 1-Cyclopropyl-6,8-difluoro-1,4-dihydro-7-(4-hydroxypiperazin-1-yl)-4-oxoquinoline-3-carboxylic acid hydrochloride]", "values": [{"measurement": "ED50", "setting": "[1]; [5]", "value": 3.84, "unit": "mg/kg"}, {"measurement": "ED50", "setting": "Escherichia coli KC-14 [2]; [6]", "value": 0.19, "unit": "mg/kg"}, {"measurement": "LD50 at 336 h", "setting": "in vivo", "value": "> 4000", "unit": "mg/kg"}, {"measurement": "MIC", "setting": "Escherichia coli KC-14 [3]; [7]", "value": 0.05, "unit": "µg/mL"}, {"measurement": "MIC", "setting": "[4]; [8]", "value": 0.39, "unit": "µg/mL"}]}
{"compound": "O=C(O)c1cn(C2CC2)c2cc(N3CCN(O)CC3)c(F)cc2c1=O", "note": "[compound 2, 1-Cyclopropyl-6-fluoro-1,4-dihydro-7-(4-hydroxypiperazin-1-yl)-4-oxoquinoline-3-carboxylic acid hydrochloride 1/4 hydrate]", "values": [{"measurement": "ED50", "setting": "[1]; [5]", "value": 17.7, "unit": "mg/kg"}, {"measurement": "ED50", "setting": "Escherichia coli KC-14 [2]; [6]", "value": 0.37, "unit": "mg/kg"}, {"measurement": "LD50 at 336 h", "setting": "in vivo", "value": "> 4000", "unit": "mg/kg"}, {"measurement": "MIC", "setting": "Escherichia coli KC-14 [3]; [7]", "value": 0.025, "unit": "µg/mL"}, {"measurement": "MIC", "setting": "[4]; [8]", "value": 0.78, "unit": "µg/mL"}]}
{"compound": "CCn1cc(C(=O)O)c(=O)c2cc(F)c(N3CCNCC3)c(F)c21.Cl", "note": "[C, 1-Ethyl-6,8-difluoro-1,4-dihydro-7-(piperazin-1-yl)-4-oxoquinoline-3-carboxylic acid hydrochloride, reference compound]", "values": [{"measurement": "ED50", "setting": "[1]; [5]", "value": 40.3, "unit": "mg/kg"}, {"measurement": "ED50", "setting": "Escherichia coli KC-14 [2]; [6]", "value": 1.46, "unit": "mg/kg"}, {"measurement": "LD50 at 336 h", "setting": "in vivo", "value": 1070, "unit": "mg/kg"}, {"measurement": "MIC", "setting": "Escherichia coli KC-14 [3]; [7]", "value": 0.1, "unit": "µg/mL"}, {"measurement": "MIC", "setting": "[4]; [8]", "value": 0.78, "unit": "µg/mL"}]}
{"compound": "CCn1cc(C(=O)O)c(=O)c2cc(F)c(N3CCN(O)CC3)cc21", "note": "[compound 1, 1-Ethyl-6-fluoro-1,4-dihydro-7-(4-hydroxypiperazin-1-yl)-4-oxoquinoline-3-carboxylic acid]", "values": [{"measurement": "ED50", "setting": "[1]; [5]", "value": 187, "unit": "mg/kg"}, {"measurement": "ED50", "setting": "Escherichia coli KC-14 [2]; [6]", "value": 1.92, "unit": "mg/kg"}, {"measurement": "LD50 at 336 h", "setting": "in vivo", "value": "> 4000", "unit": "mg/kg"}, {"measurement": "MIC", "setting": "Escherichia coli KC-14 [3]; [7]", "value": 0.39, "unit": "µg/mL"}, {"measurement": "MIC", "setting": "[4]; [8]", "value": 1.56, "unit": "µg/mL"}]}
{"compound": "CCn1cc(C(=O)O)c(=O)c2cc(F)c(N3CCNCC3)cc21", "note": "[A, 1-Ethyl-6-fluoro-1,4-dihydro-7-(piperazin-1-yl)-4-oxoquinoline-3-carboxylic acid, reference compound]", "values": [{"measurement": "ED50", "setting": "[1]; [5]", "value": 225, "unit": "mg/kg"}, {"measurement": "ED50", "setting": "Escherichia coli KC-14 [2]; [6]", "value": 5.82, "unit": "mg/kg"}, {"measurement": "MIC", "setting": "Escherichia coli KC-14 [3]; [7]", "value": 0.2, "unit": "µg/mL"}, {"measurement": "MIC", "setting": "[4]; [8]", "value": 1.56, "unit": "µg/mL"}]}
{"compound": "Cl.O=C(O)c1cn(C2CC2)c2cc(N3CCNCC3)c(F)cc2c1=O", "note": "[B, 1-Cyclopropyl-6-fluoro-1,4-dihydro-7-(piperazin-1-yl)-4-oxoquinoline-3-carboxylic acid hydrochloride, reference compound]", "values": [{"measurement": "ED50", "setting": "[1]; IID803, po, 168 h", "value": 46.7, "unit": "mg/kg"}, {"measurement": "ED50", "setting": "Escherichia coli KC-14 [2]; KC14, po, 168 h", "value": 0.84, "unit": "mg/kg"}, {"measurement": "MIC", "setting": "Escherichia coli KC-14 [3]; KC14, read-out: Antibacterial activity MIC (minimum inhibitory concentration)", "value": 0.0125, "unit": "µg/mL"}, {"measurement": "MIC", "setting": "[4]; IID803, read-out: Antibacterial activity MIC (minimum inhibitory concentration)", "value": 0.78, "unit": "µg/mL"}]}
{"compound": "Cl.O=C(O)c1cn(CCF)c2c(F)c(N3CCNCC3)c(F)cc2c1=O", "note": "[D, 6,8-Difluoro-1-(2-fluoroethyl)-1,4-dihydro-7-(piperazin-1-yl)-4-oxoquinoline-3-carboxylic acid hydrochloride, reference compound]", "values": [{"measurement": "ED50", "setting": "[1]; [5]", "value": 123, "unit": "mg/kg"}, {"measurement": "ED50", "setting": "Escherichia coli KC-14 [2]; [6]", "value": 5.82, "unit": "mg/kg"}, {"measurement": "MIC", "setting": "Escherichia coli KC-14 [3]; [7]", "value": 0.2, "unit": "µg/mL"}, {"measurement": "MIC", "setting": "[4]; [8]", "value": 1.56, "unit": "µg/mL"}]}
